Row | melting point [°C] | SMILES
1 | 92 | Cn1nc(N2CCN(C(=O)c3cccc(C(F)(F)F)c3)CC2)c(=O)n(C)c1=O [Example 44, 2,4-dimethyl-6-[4-(3-trifluoromethyl-benzoyl)-piperazin-1-yl]-2H-[1,2,4]triazine-3,5-dione]
2 | 119 | Cn1nc(N2CCN(C(=O)c3ccccc3Br)CC2)c(=O)n(C)c1=O [Example 45, 6-[4-(2-bromo-benzoyl)-piperazin-1-yl]-2,4-dimethyl-2H-[1,2,4]triazine-3,5-dione]
3 | 132 | Cn1nc(N2CCN(C(=O)c3ccccc3)CC2)c(=O)n(C)c1=O [Example 46, 6-(4-benzoyl-piperazin-1-yl)-2,4-dimethyl-2H-[1,2,4]triazine-3,5-dione]
4 | 58 | CC(C)C(C(=O)N1CCN(c2nn(C)c(=O)n(C)c2=O)CC1)c1ccc(Cl)cc1 (stereo not drawn) [Example 49, 6-{4-[2-(4-chloro-phenyl)-3-methyl-butyryl]-piperazin-1-yl}-2,4-dimethyl-2H-[1,2,4]triazine-3,5-dione]
5 | 198 | Cn1nc(N2CCN(C(=O)/C=C/c3ccc([N+](=O)[O-])cc3)CC2)c(=O)n(C)c1=O [Example 50, 2,4-dimethyl-6-{4-[(E)-3-(4-nitro-phenyl)-acryloyl]-piperazin-1-yl}-2H-[1,2,4]triazine-3,5-dione]
6 | 93 | Cn1nc(N2CCN(C(=O)Oc3cccc(C(F)(F)F)c3)CC2)c(=O)n(C)c1=O [Example 51, 4-(2,4-dimethyl-3,5-dioxo-2,3,4,5-tetrahydro-[1,2,4]triazin-6-yl)-piperazine-1-carboxylic Acid 3-trifluoromethyl-phenyl Ester]
7 | 90 | Cn1nc(N2CCN(C(=O)c3ccccc3C(F)(F)F)C(=O)C2)c(=O)n(C)c1=O [Example 53, 2,4-dimethyl-6-[3-oxo-4-(2-trifluoromethyl-benzoyl)-piperazin-1-yl]-2H-[1,2,4]triazine-3,5-dione]
8 | 163 | Cn1cc(N2CCN(C(=O)c3ccccc3C(F)(F)F)CC2)c(=O)n(C)c1=O [Example 62, 1,3-dimethyl-5-[4-(2-trifluoromethyl-benzoyl)-piperazin-1-yl]-1H-pyrimidine-2,4-dione]
9 | 102 | O=c1[nH]nc(N2CCC(Oc3ccccc3C(F)(F)F)CC2)c(=O)n1CCCC(F)(F)F [Example 72, 4-(4,4,4-trifluoro-butyl)-6-[4-(2-trifluoromethyl-phenoxy)-piperidin-1-yl]-2H-[1,2,4]triazine-3,5-dione]
10 | 110 | Cn1c(=O)c(N2CCC(Oc3ccccc3C(F)(F)F)CC2)nn(C2Cc3ccccc3C2=O)c1=O (stereo not drawn) [Example 87, 4-methyl-2-(1-oxo-indan-2-yl)-6-[4-(2-trifluoromethyl-phenoxy)-piperidin-1-yl]-2H-[1,2,4]triazine-3,5-dione]
11 | 172 | Cn1nc(N2CCC(Oc3cc(F)ccc3Cl)CC2)c(=O)[nH]c1=O [Example 90, 6-(4-(2-chloro-5-fluorophenoxy)piperidin-1-yl)-2-methyl-1,2,4-triazine-3,5(2H, 4H)-dione]

The remaining lines, values behind:

Row | SMILES | melting point [°C]
12 | Cn1cc(N2CCN(Cc3ccccc3)CC2)c(=O)n(C)c1=O | 162
13 | Cn1nc(N2CCN(c3cccc(C(F)(F)F)c3)CC2)c(=O)n(C)c1=O | 163
14 | COc1ccccc1OC1CCN(c2nn(C)c(=O)n(C)c2=O)CC1 [Example 34, 6-[4-(2-methoxy-phenoxy)-piperidin-1-yl]-2,4-dimethyl-2H-[1,2,4]triazine-3,5-dione] | 78
15 | Cn1nc(N2CCC(C(=O)c3ccc(F)cc3)CC2)c(=O)n(C)c1=O [Example 36, 6-[4-(4-fluoro-benzoyl)-piperidin-1-yl]-2,4-dimethyl-2H-[1,2,4]triazine-3,5-dione] | 129
16 | Cn1nc(N2CCC(Oc3ccccc3C(F)(F)F)C2)c(=O)n(C)c1=O (stereo not drawn) [Example 37, 2,4-dimethyl-6-[3-(2-trifluoromethyl-phenoxy)-pyrrolidin-1-yl]-2H-[1,2,4]triazine-3,5-dione] | 84
17 | Cn1nc(N2CCC(Oc3ccccc3)C2)c(=O)n(C)c1=O (stereo not drawn) [Example 38, 2,4-dimethyl-6-(3-phenoxy-pyrrolidin-1-yl)-2H-[1,2,4]triazine-3,5-dione] | 80
18 | Cn1nc(N2CCC(Cc3cc(C(F)(F)F)ccc3F)CC2)c(=O)n(C)c1=O [Example 39, 6-[4-(2-fluoro-5-trifluoromethyl-benzyl)-piperidin-1-yl]-2,4-dimethyl-2H-[1,2,4]triazine-3,5-dione] | 116
19 | Cn1nc(N2CCN(C(=O)c3cc(C(F)(F)F)ccc3C(F)(F)F)CC2)c(=O)n(C)c1=O [Example 40, 6-[4-(2,5-Bis-trifluoromethyl-benzoyl)-piperazin-1-yl]-2,4-dimethyl-2H-[1,2,4]triazine-3,5-dione] | 90
20 | Cn1nc(N2CCN(C(=O)c3ccc(F)cc3C(F)(F)F)CC2)c(=O)n(C)c1=O [Example 41, 6-[4-(4-fluoro-2-trifluoromethyl-benzoyl)-piperazin-1-yl]-2,4-dimethyl-2H-[1,2,4]triazine-3,5-dione] | 128
21 | Cc1ccccc1C(=O)N1CCN(c2nn(C)c(=O)n(C)c2=O)CC1 [Example 43, 2,4-dimethyl-6-[4-(2-methyl-benzoyl)-piperazin-1-yl]-2H-[1,2,4]triazine-3,5-dione] | 60

— patent US8618287B2, “Derivatives of triazines and uracils, their preparation and their application in human therapeutics” (Pierre Fabre Medicament, priority 2008, dated 2013)
